Data on 19 compounds can be found in US10292968B2, “Substituted heterocycles as bromodomain inhibitors” (Zenith Epigenetics Ltd., priority 2014, dated 2019).

Structures can show the parent of a compound that is named as a salt. Some results are limits rather than exact numbers.

In one assay the test system is MV4-11 cells. As to the kind of experiment: Inhibition of cell proliferation in MV4-11 cells (Cell Titer Aqueous One). It counts as cell-based. The conditions noted are these: Human AML MV-4-11 cells, 72 h. The method, then:
MV4-11 cells (CRL-9591) were plated at a density of 5×10^4 cells per well in 96 well flat bottom plates and treated with increasing concentrations of test compound or DMSO (0.1%) in IMDM media containing 10% FBS and penicillin/streptomycin. Triplicate wells were used for each concentration and a well containing only media was used as a control. Plates were incubated at 37° C., 5% CO2 for 72 h before adding 20 μL of the Cell Titer Aqueous One Solution (Promega) to each well and incubated at 37° C., 5% CO2 for an additional 3-4 h. The absorbance was read at 490 nm in a spectrophotometer and the percentage of cell titer relative to DMSO-treated cells was calculated after correcting for background by subtracting the blank well's signal. IC50 values were calculated using the GraphPad Prism software.

Assay [1] concerns the target T1, Brd 4 bromodomain 2 (BRD4(2)) (Homo sapiens, UniProt O60885).
T1 construct: N-terminally His-tagged bromodomains (BRD4(1) at 20 nM and BRD4(2) at 100 nM); made in house; host or cells: E. coli BL21(DE3)
As to the kind of experiment: AlphaScreen inhibition of tetra-acetylated histone H4 binding to BRD4(2). Particulars: BRD4(2) at 100 nM, tetra-acetylated histone H4 peptide, 30 min incubation; for IC50: read-out: Alpha Screen BRD4(2). The method, then:
(§1) Proteins were cloned and overexpressed with a N-terminal 6×His tag, then purified by nickel affinity followed by size exclusion chromatography. Briefly, E. coli BL21(DE3) cells were transformed with a recombinant expression vector encoding N-terminally Nickel affinity tagged bromodomains from Brd2, Brd3, Brd4. Cell cultures were incubated at 37° C. with shaking to the appropriate density and induced overnight with IPTG. The supernatant of lysed cells was loaded onto Ni-IDA column for purification. Eluted protein was pooled, concentrated and further purified by size exclusion chromatography. Fractions representing monomeric protein were pooled, concentrated, aliquoted, and frozen at −80° C. for use in subsequent experiments.
(§2) Binding of tetra-acetylated histone H4 peptide (Millipore) and BET bromodomains was confirmed by Amplified Luminescent Proximity Homogenous Assay (AlphaScreen). N-terminally His-tagged bromodomains (BRD4(1) at 20 nM and BRD4(2) at 100 nM) and biotinylated tetra-acetylated histone H4 (10-25 nM) were incubated in the presence of nickel chelate acceptor beads and streptavidin donor beads (PerkinAlmer, 6760000K) added to a final concentration of 2 μg/ml under green light in a white 96 well microtiter plate (Greiner). For inhibition assays, serially diluted compounds were added to the reaction mixtures in a 0.1% final concentrations of DMSO. Final buffer concentrations were 50 mM HEPES, 100 mM NaCl and 0.1% BSA buffer, pH 7.4 and optimized to 30 min incubation time. Assay plates were read at 570 nm on a Synergy H4 Plate Reader (Biotek). IC50 values were determined from a dose response curve.
Background: In Alpha technology, singlet oxygen from a donor bead excites a nearby acceptor bead.

The subject of another assay is cMYC. The assay is described as follows: Inhibition of cMYC expression (mRNA, real-time PCR) in MV4-11 cells. It counts as cell-based. The conditions noted are these: Human AML MV4-11 cells, 3 h; for IC50: read-out: c-myc activity. The method, then: MV4-11 cells (CRL-9591) were plated at a density of 2.5×10^4 cells per well in 96 well U-bottom plates and treated with increasing concentrations of test compound or DMSO (0.1%) in IMDM media containing 10% FBS and penicillin/streptomycin, and incubated for 3 h at 37° C. Triplicate wells were used for each concentration. Cells were pelleted by centrifugation and harvested using the mRNA Catcher PLUS kit according to manufacturer's instructions. The eluted mRNA isolated was then used in a one-step quantitative real-time PCR reaction, using components of the RNA UltraSense™ One-Step Kit (Life Technologies) together with Applied Biosystems TaqMan® primer-probes for cMYC and Cyclophilin. Real-time PCR plates were run on a ViiA™7 real time PCR machine (Applied Biosystems), data was analyzed, normalizing the Ct values for cMYC to an internal control, prior to determining the fold expression of each sample, relative to the control.

Assay [2] has as its target T2, Brd4 bromodomain 1 (BRD4(1)) (Homo sapiens, UniProt O60885).
T2 construct: N-terminally His-tagged bromodomains (BRD4(1) at 20 nM and BRD4(2) at 100 nM); made in house; host or cells: E. coli BL21(DE3)
As to the kind of experiment: AlphaScreen inhibition of tetra-acetylated histone H4 binding to BRD4(1). Particulars: BRD4(1) at 20 nM, tetra-acetylated histone H4 peptide, 30 min incubation; for IC50: read-out: Alpha Screen BRD4(1). The method, then:
as §1, §2

On to `COC(=O)c1ccc(C)c(-c2[nH]c(-c3ccccc3)nc2-c2n[nH]c(=O)n2C2CC2)c1` [Example 2, methyl 3-(4-(4-cyclopropyl-5-oxo-4,5-dihydro-1H-1,2,4-triazol-3-yl)-2-phenyl-1H-imidazol-5-yl)-4-methyl benzoate hydrochloride], for which the “Cell Proliferation activity” value with MV4-11 cells is “Not Active”. In addition, the IC50 in assay [1] and in assay [2] was 3 to 30 µM in each case. Also, the c-myc activity result in the assay on cMYC is reported as “Not Active”.
On to `CNC(=O)c1cccc(-c2[nH]c(-c3ccccc3)nc2-c2n[nH]c(=O)n2C2CC2)c1` [Example 3, 3-(4-(4-cyclopropyl-5-oxo-4,5-dihydro-1H-1,2,4-triazol-3-yl)-2-phenyl-1H-imidazol-5-yl)-N-methyl benzamide hydrochloride], for which the IC50 in assay [1] and in assay [2] was 3 to 30 µM each time.
In the case of `NC(=O)c1cccc(-c2[nH]c(-c3ccccc3)nc2-c2n[nH]c(=O)n2C2CC2)c1` [Example 4, 3-(4-(4-cyclopropyl-5-oxo-4,5-dihydro-1H-1,2,4-triazol-3-yl)-2-phenyl-1H-imidazol-5-yl) benzamide hydrochloride], the IC50 (in the assay on MV4-11 cells (MV4-11); in the assay with cMYC; in assay [2]) was 3 to 30 µM each time. In addition, the “Alpha Screen BRD4(2)” value in assay [1] is given as “Not Active”.
With `O=C1CCc2ccc(-c3[nH]c(-c4ccccc4)nc3-c3n[nH]c(=O)n3C3CC3)cc21` [Example 5, 4-cyclopropyl-3-(5-(3-oxo-2,3-dihydro-1H-inden-5-yl)-2-phenyl-1H-imidazol-4-yl)-1H-1,2,4-triazol-5(4H)-one hydrochloride], the “Alpha Screen BRD4(2)” value in assay [1] was “Not Active”. Moreover, the “Alpha Screen BRD4(1)” value in assay [2] is on record as “Not Active”.
For `CC(=O)c1ccc(C)c(-c2[nH]c(-c3ccccc3)nc2-c2n[nH]c(=O)n2C2CC2)c1` [Example 11, 3-(5-(5-acetyl-2-methylphenyl)-2-phenyl-1H-imidazol-4-yl)-4-cyclopropyl-1H-1,2,4-triazol-5(4H)-one hydrochloride], the “Alpha Screen BRD4(2)” value in assay [1] is “Not Active”. Moreover, the IC50 in assay [2] was in the range of 3 to 30 µM.
Turning to `CC(=O)c1cncc(-c2[nH]c(-c3ccccc3)nc2-c2n[nH]c(=O)n2C2CC2)c1` [Example 12, 3-(5-(5-acetylpyridin-3-yl)-2-phenyl-1H-imidazol-4-yl)-4-cyclopropyl-1H-1,2,4-triazol-5(4H)-one formate], the values for the IC50 in assay [1] and in assay [2] were 0.3 to 3 µM and 3 to 30 µM, respectively.
For the compound `Cc1nn(C)c2ccc(-c3[nH]c(-c4ccccc4)nc3-c3n[nH]c(=O)n3C3CC3)cc12` [Example 15, 4-cyclopropyl-3-(5-(1,3-dimethyl-1H-indazol-5-yl)-2-phenyl-1H-imidazol-4-yl)-1H-1,2,4-triazol-5(4H)-one hydrochloride], the IC50 in assay [1] lay within 3 to 30 µM; in assay [2], 0.3 to 3 µM.
For the compound `Cc1noc2ccc(-c3[nH]c(-c4ccccc4)nc3-c3n[nH]c(=O)n3C3CC3)cc12` [Example 16, 4-cyclopropyl-3-(5-(3-methylbenzo[d]isoxazol-5-yl)-2-phenyl-1H-imidazol-4-yl)-1H-1,2,4-triazol-5(4H)-one], the IC50 was 0.3 to 3 µM in assay [1] and no more than 0.3 µM in assay [2].
In the case of `Cn1ncc2ccc(-c3[nH]c(-c4ccccc4)nc3-c3n[nH]c(=O)n3CC3CC3)cc21` [Example 17, 4-(cyclopropylmethyl)-3-(5-(1-methyl-1H-indazol-6-yl)-2-phenyl-1H-imidazol-4-yl)-1H-1,2,4-triazol-5(4H)-one], the “Alpha Screen BRD4(2)” value in assay [1] is “Not Active”. For the same compound, the “Alpha Screen BRD4(1)” value in assay [2] is “Not Active”.
For `CC(C)Cn1c(-c2nc(-c3ccccc3)[nH]c2-c2ccc3cnn(C)c3c2)n[nH]c1=O` [Example 18, 4-isobutyl-3-(5-(1-methyl-1H-indazol-6-yl)-2-phenyl-1H-imidazol-4-yl)-1H-1,2,4-triazol-5(4H)-one], the IC50 in assay [1] lay within 3 to 30 µM; in assay [2] it was 0.3 to 3 µM. Moreover, the c-myc activity entry in the assay on cMYC is “Not Active”.
For the compound `Cn1ncc2ccc(-c3[nH]c(-c4ccccc4)nc3-c3n[nH]c(=O)n3C3CCC3)cc21` [Example 19, 4-cyclobutyl-3-(5-(1-methyl-1H-indazol-6-yl)-2-phenyl-1H-imidazol-4-yl)-1H-1,2,4-triazol-5(4H)-one], the IC50 was in the range of 3 to 30 µM in assay [1], 3 to 30 µM in the assay on cMYC and 0.3 to 3 µM in assay [2].
As for `Cn1ncc2ccc(-c3[nH]c(-c4ccccc4)nc3-c3n[nH]c(=O)n3CC(C)(C)C)cc21` [Example 20, 3-(5-(1-methyl-1H-indazol-6-yl)-2-phenyl-1H-imidazol-4-yl)-4-neopentyl-1H-1,2,4-triazol-5(4H)-one], the IC50 in assay [1] fell in the range of 3 to 30 µM; in assay [2], 0.3 to 3 µM.
Turning to `Cn1ncc2ccc(-c3[nH]c(-c4ccccc4)nc3-c3n[nH]c(=O)n3C3CCCC3)cc21` [Example 21, 4-cyclopentyl-3-(5-(1-methyl-1H-indazol-6-yl)-2-phenyl-1H-imidazol-4-yl)-1H-1,2,4-triazol-5(4H)-one], the “Alpha Screen BRD4(2)” value in assay [1] is given as “Not Active”. Moreover, the IC50 in assay [2] fell in the range of 3 to 30 µM.
For `CC(C)n1c(-c2nc(-c3ccccc3)[nH]c2-c2ccc3cnn(C)c3c2)n[nH]c1=O` [Example 22, 4-isopropyl-3-(5-(1-methyl-1H-indazol-6-yl)-2-phenyl-1H-imidazol-4-yl)-1H-1,2,4-triazol-5(4H)-one], the IC50 in assay [1] and in assay [2] was 3 to 30 µM each time.
Take `Cn1ncc2ccc(-c3[nH]c(-c4ccncc4)nc3-c3n[nH]c(=O)n3C3CC3)cc21` [Example 23, 4-cyclopropyl-3-(5-(1-methyl-1H-indazol-6-yl)-2-(pyridin-4-yl)-1H-imidazol-4-yl)-1H-1,2,4-triazol-5(4H)-one dihydrochloride]: the IC50 was 3 to 30 µM in assay [1] and no more than 0.3 µM in assay [2].
In the case of `Cn1ncc2ccc(-c3[nH]c(-c4cccnc4)nc3-c3n[nH]c(=O)n3C3CC3)cc21` [Example 24, 4-cyclopropyl-3-(5-(1-methyl-1H-indazol-6-yl)-2-(pyridin-3-yl)-1H-imidazol-4-yl)-1H-1,2,4-triazol-5(4H)-one dihydrochloride], the IC50 in assay [1] and in assay [2] was 3 to 30 µM throughout.
For `Cn1cc(-c2nc(-c3n[nH]c(=O)n3C3CC3)c(-c3ccc4cnn(C)c4c3)[nH]2)cn1` [Example 25, 4-cyclopropyl-3-(5-(1-methyl-1H-indazol-6-yl)-2-(1-methyl-1H-pyrazol-4-yl)-1H-imidazol-4-yl)-1H-1,2,4-triazol-5(4H)-one hydrochloride], the IC50 in assay [1] was 3 to 30 µM; in assay [2], 0.3 to 3 µM.
For the compound `Cn1ncc2ccc(-c3[nH]c(-c4cn[nH]c4)nc3-c3n[nH]c(=O)n3C3CC3)cc21` [Example 26, 4-cyclopropyl-3-(5-(1-methyl-1H-indazol-6-yl)-2-(1H-pyrazol-4-yl)-1H-imidazol-4-yl)-1H-1,2,4-triazol-5(4H)-one hydrochloride], the IC50 in assay [1] and in assay [2] was 3 to 30 µM each time.
On to `Cn1nc(-c2nc(-c3ccccc3)[nH]c2-c2ccc3cnn(C)c3c2)n(C2CC2)c1=O` [Example 27, 4-cyclopropyl-1-methyl-3-(5-(1-methyl-1H-indazol-6-yl)-2-phenyl-1H-imidazol-4-yl)-1H-1,2,4-triazol-5(4H)-one hydrochloride], for which the “Alpha Screen BRD4(2)” value in assay [1] is listed as “Not Active”. In addition, the IC50 in assay [2] was 3 to 30 µM.
